This is an account of results in patent US4401660A, “Ester derivatives of 5-O-mycaminosyl tylonolide and method of using same” (Eli Lilly and Company, priority 1981, dated 1983).

The subject of assay [1] is Streptococcus Group D 9960. As to the kind of experiment: MIC, standard agar-dilution assay (Table II). The format is cell-based. Details: unit not given here. On the procedure: (§1) The MIC's in Table II were determined by standard agar-dilution assays. The MIC's in Table III were obtained using a conventional broth-dilution microtiter test.
Assay [2] concerns Staphylococcus epidermidis EPI1. The assay can be described thus: MIC, standard agar-dilution assay (Table II). Details: unit not given here. The format is cell-based. On the procedure: as §1
The test system of assay [3] is Haemophilus influenzae R252. The assay can be described thus: MIC, standard agar-dilution assay (Table II). The format is cell-based. Conditions: Haemophilus influenzae R252, ampicillin-resistant strain. Details: unit not given here. On the procedure: as §1
In assay [4] the test system is Staphylococcus aureus X1.1. As to the kind of experiment: MIC, standard agar-dilution assay (Table II). The format is cell-based. Details: unit not given here. As for the experimental part: as §1
The test system of assay [5] is Streptococcus Group D X66. The assay can be described thus: MIC, standard agar-dilution assay (Table II). Details: unit not given here. The format is cell-based. On the procedure:
as §1

The subject of assay [6] is Streptococcus pyogenes C203. As to the kind of experiment: MIC, standard agar-dilution assay (Table II). Details: unit not given here. The format is cell-based. As for the experimental part: as §1
The test system of assay [7] is Haemophilus influenzae Holt. The assay can be described thus: MIC, standard agar-dilution assay (Table II). The format is cell-based. Details: unit not given here. Conditions: ampicillin-sensitive strain. As for the experimental part:
as §1

The test system of assay [8] is Staphylococcus aureus V41. The assay can be described thus: MIC, standard agar-dilution assay (Table II). The format is cell-based. The note with it: Staphylococcus aureus V41, penicillin-resistant strain. Details: unit not given here. On the procedure: as §1
The subject of assay [9] is Staphylococcus aureus S13E. The assay can be described thus: MIC, standard agar-dilution assay (Table II). The format is cell-based. Details: unit not given here. On the procedure: as §1
Assay [10] concerns Staphylococcus epidermidis EPI2. As to the kind of experiment: MIC, standard agar-dilution assay (Table II). Details: unit not given here. The format is cell-based. On the procedure:
as §1

The subject of assay [11] is Staphylococcus aureus X400. The assay can be described thus: MIC, standard agar-dilution assay (Table II). The format is cell-based. Details: unit not given here. The note with it: Staphylococcus aureus X400, methicillin-resistant strain. On the procedure:
as §1

Assay [12] relates to Streptococcus pneumoniae Park I. As to the kind of experiment: MIC, standard agar-dilution assay (Table II). The format is cell-based. Details: unit not given here. As for the experimental part: as §1
For assay [13], the system named is Pasteurella multocida 60A. The assay can be described thus: MIC, broth-dilution microtiter test (Table III). The format is cell-based. The note with it: avian isolate. Details: unit not given here. On the procedure:
as §1

The subject of the next assay is Mycoplasma synoviae. The assay can be described thus: MIC, broth-dilution microtiter test (Table III). The format is cell-based. Details: unit not given here. As for the experimental part: as §1
Another assay relates to Staphylococcus aureus. The assay can be described thus: MIC, broth-dilution microtiter test (Table III). The format is cell-based. Details: unit not given here. As for the experimental part:
as §1

The next assay deals with Mycoplasma hyorhinis. As to the kind of experiment: MIC, broth-dilution microtiter test (Table III). The format is cell-based. Details: unit not given here. On the procedure:
as §1

The next assay relates to Mycoplasma gallisepticum. As to the kind of experiment: MIC, broth-dilution microtiter test (Table III). The format is cell-based. Details: unit not given here. On the procedure: as §1
The next assay relates to Streptococcus sp. 80. The assay can be described thus: MIC, broth-dilution microtiter test (Table III). The format is cell-based. Details: unit not given here. On the procedure:
as §1

Assay [14] relates to Pasteurella multocida 17E. As to the kind of experiment: MIC, broth-dilution microtiter test (Table III). Details: unit not given here. The format is cell-based. Conditions: bovine isolate. On the procedure:
as §1

Another assay concerns Pasteurella multocida. As to the kind of experiment: Treatment of Pasteurella infections in chicks (Table V). The format is in vivo, one-day-old chicks. The note with it: Pasteurella multocida, sc, 4 h; 30 mg/kg by subcutaneous injection one and four hours post challenge; read-out: Deaths in Treated Chicks/Number Treated (converted). As for the experimental part: Certain OMT ester derivatives are active in vivo against Pasteurella infections. Table V summarizes the results of tests in which the ester derivatives were administered to one-day-old chicks at a dosage level of 30 mg/kg by subcutaneous injection one and four hours post challenge of the chicks with Pasteurella multocida (0.1 ml of a 10^-3 dilution of a 20-hour tryptose broth culture of avian P. multocida given subcutaneously). All nonmedicated infected chicks (ten in each control group) died within 24 hours of Pasteurella challenge.

Molecules are shown by their SMILES.

Turning to `CCC1OC(=O)CC(O)C(C)C(OC2OC(C)C(OC(C)=O)C(N(C)C)C2OC(C)=O)C(CC=O)CC(C)C(=O)C=CC(C)=CC1COC(=O)C(C)C` (stereo not shown) [Compound 17], the “minimal inhibitory concentration (MIC)” value in assay [1] is listed as 1; in assay [2], 0.5; in assay [3] it was 4; in [4] it was 1; in [5], 1; in assay [6] it was 1. For the same molecule, the “minimal inhibitory concentration (MIC)” value is recorded as 4 in assay [7]; 1 in [8]; 1 in [9]; 1 in assay [10]; 1 in assay [11]; 0.25 in assay [12]. The “minimal inhibitory concentration (MIC)” value was 3.12 in assay [13]; less than 0.05 in the assay with Mycoplasma synoviae; 0.195 in the assay with Staphylococcus aureus; 0.39 in the assay on Mycoplasma hyorhinis; less than 0.05 with Mycoplasma gallisepticum; less than 0.05 with Streptococcus sp. 80. The “minimal inhibitory concentration (MIC)” value in assay [14] is given as 1.56. Also, the mortality at 30 mg/kg in the assay with Pasteurella multocida was 100%.
Regarding `CCCCCCCC(=O)OCC1C=C(C)C=CC(=O)C(C)CC(CC=O)C(OC2OC(C)C(O)C(N(C)C)C2O)C(C)C(O)CC(=O)OC1CC` (stereo not shown) [Compound 24], the “minimal inhibitory concentration (MIC)” value is 0.5 in assay [1]; 0.25 in assay [2]; 4 in assay [3]; 0.25 in assay [4]; 0.5 in [5]; 0.5 in assay [6]. The “minimal inhibitory concentration (MIC)” value in assay [7] turned out to be 4; in assay [8] it was 0.5; in [9], 0.25; in assay [10], 0.25; in assay [11], 0.5; in assay [12] it was 0.125. The “minimal inhibitory concentration (MIC)” value in assay [13] is 6.25; in the assay on Mycoplasma synoviae, 0.097; in the assay on Staphylococcus aureus, 0.78; in the assay with Mycoplasma hyorhinis it was 6.25; with Mycoplasma gallisepticum, less than 0.05; in the assay on Streptococcus sp. 80 it was 0.39. In addition, in [14], the “minimal inhibitory concentration (MIC)” value is 6.25. In the assay on Pasteurella multocida, the mortality at 30 mg/kg is 10%.
With `CCC1OC(=O)CC(O)C(C)C(OC2OC(C)C(OC(C)=O)C(N(C)C)C2OC(C)=O)C(CC=O)CC(C)C(=O)C=CC(C)=CC1COC(=O)CC(C)C` (stereo not shown) [Compound 21, 2',4'-Di-O-acetyl-23-O-i-valeryl-OMT], the “minimal inhibitory concentration (MIC)” value in assay [1] turned out to be 0.5; in [2], 0.5; in assay [3], 8; in [4], 0.5; in [5], 0.5; in [6], 0.5. Also, the “minimal inhibitory concentration (MIC)” value in [7] was 2; in assay [8] it was 0.5; in assay [9], 0.5; in assay [10], 0.5; in [11], 1; in [12] it was 0.5. For the same molecule, the “minimal inhibitory concentration (MIC)” value in assay [13] is recorded as 1.56; in the assay on Mycoplasma synoviae, less than 0.05; in the assay on Staphylococcus aureus, 0.39; with Mycoplasma hyorhinis it was 0.78; in the assay on Mycoplasma gallisepticum it was less than 0.05; in the assay on Streptococcus sp. 80 it was 0.195. For the same molecule, the “minimal inhibitory concentration (MIC)” value in assay [14] was found to be 1.56. For the same molecule, the mortality at 30 mg/kg with Pasteurella multocida is 100%.
On to `CCCCC(=O)OCC1C=C(C)C=CC(=O)C(C)CC(CC=O)C(OC2OC(C)C(OC(C)=O)C(N(C)C)C2OC(C)=O)C(C)C(O)CC(=O)OC1CC` (stereo not shown) [Compound 19], for which the “minimal inhibitory concentration (MIC)” value in [1] amounted to 0.5; in assay [2], 0.125; in assay [3] it was 2; in [4], 0.25; in [5], 0.5; in assay [6] it was 0.25. Besides, the “minimal inhibitory concentration (MIC)” value in assay [7] worked out at 2; in assay [8], 0.25; in [9], 0.25; in assay [10], 0.125; in assay [11], 0.5; in assay [12] it was 0.03. Further, the “minimal inhibitory concentration (MIC)” value was 3.12 in assay [13]; less than 0.05 in the assay with Mycoplasma synoviae; 0.39 with Staphylococcus aureus; 6.25 in the assay on Mycoplasma hyorhinis; less than 0.05 with Mycoplasma gallisepticum; less than 0.05 in the assay with Streptococcus sp. 80. In addition, the “minimal inhibitory concentration (MIC)” value in assay [14] is 1.56. For the same molecule, in the assay on Pasteurella multocida, the mortality at 30 mg/kg is 100%.
Take `CCC1OC(=O)CC(O)C(C)C(OC2OC(C)C(O)C(N(C)C)C2O)C(CC=O)CC(C)C(=O)C=CC(C)=CC1COC(=O)C(C)C` (stereo not shown) [Compound 18]: the “minimal inhibitory concentration (MIC)” value in assay [1] is 0.5; in [2] it was 0.25; in [3], 4; in [4] it was 0.25; in assay [5], 0.5; in assay [6] it was 0.5. For the same molecule, the “minimal inhibitory concentration (MIC)” value in assay [7] is 2; in assay [8], 0.5; in assay [9], 0.25; in assay [10] it was 0.5; in [11], 0.5; in [12], 0.25. Moreover, the “minimal inhibitory concentration (MIC)” value was 3.12 in assay [13]; less than 0.05 with Mycoplasma synoviae; 0.78 with Staphylococcus aureus; 0.39 in the assay with Mycoplasma hyorhinis; less than 0.05 with Mycoplasma gallisepticum; 0.195 in the assay with Streptococcus sp. 80. The “minimal inhibitory concentration (MIC)” value in assay [14] is reported as 1.56. Moreover, the mortality at 30 mg/kg with Pasteurella multocida is 0%.
